Data as given in ChEMBL document CHEMBL4000233, “Synthesis and evaluation of 5-(1H-indol-3-yl)-N-aryl-1,3,4-oxadiazol-2-amines as Bcl-2 inhibitory anticancer agents” (Bioorg Med Chem Lett, 2017).
pIC50: −log10 of the molar value.

Key:
MDA-MB-231 = assay: Cytotoxicity against human MDA-MB-231 cells assessed as growth inhibition after 72 hrs by MTT assay; format: functional, cell-based; conditions: MDA-MB-231, 72 h
HeLa = assay: Cytotoxicity against human HeLa cells assessed as growth inhibition after 72 hrs by MTT assay; format: functional, cell-based
KG-1a = assay: Cytotoxicity against human KG1a cells assessed as growth inhibition after 24 hrs by CellTiter Blue assay; format: functional, cell-based
Jurkat = assay: Cytotoxicity against human Jurkat cells assessed as growth inhibition after 24 hrs by CellTiter Blue assay; format: functional, cell-based
[1] = biological target: Apoptosis regulator Bcl-2 (Homo sapiens, UniProt P10415); assay: Inhibition of biotinylated Bim peptide binding to His-tagged Bcl-2 (unknown origin) preincubated for 1 hr followed by biotinylated Bim peptide addition measured after 2 hrs by ELISA
Apoptosis regulator Bcl-2, sequence (P10415 whole entry): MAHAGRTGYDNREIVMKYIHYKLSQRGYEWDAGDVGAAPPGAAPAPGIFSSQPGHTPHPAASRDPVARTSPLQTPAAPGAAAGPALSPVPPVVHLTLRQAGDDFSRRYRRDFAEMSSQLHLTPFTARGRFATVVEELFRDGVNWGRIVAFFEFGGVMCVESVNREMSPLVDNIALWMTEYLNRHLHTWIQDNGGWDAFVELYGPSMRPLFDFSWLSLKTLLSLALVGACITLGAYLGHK

Compound	pIC50 (MDA-MB-231)	pIC50 (HeLa)	pIC50 (KG-1a)	pIC50 (Jurkat)	pIC50 [1]
c1ccc(CNc2nnc(-c3c[nH]c4ccccc34)o2)cc1	5.19	5.11	< 4.00	< 4.00	
Clc1ccc(Nc2nnc(-c3c[nH]c4ccccc34)o2)cc1Cl	4.51	4.71	4.34	< 4.00	
Fc1ccc(Nc2nnc(-c3c[nH]c4ccccc34)o2)cc1	< 4.00	< 4.00	4.68	< 4.00	
COc1ccc(Nc2nnc(-c3c[nH]c4ccccc34)o2)cc1	5.00	5.24	6.09	< 4.00	4.54
O=[N+]([O-])c1ccccc1Nc1nnc(-c2c[nH]c3ccccc23)o1	6.05	6.52	6.07	4.52	5.91
O=[N+]([O-])c1cccc(Nc2nnc(-c3c[nH]c4ccccc34)o2)c1	4.46	4.82	4.59	< 4.00	
Cc1ccc(Nc2nnc(-c3c[nH]c4ccccc34)o2)cc1	4.56	4.80	5.40	< 4.00	4.68
Clc1ccc(Nc2nnc(-c3c[nH]c4ccccc34)o2)cc1	5.01	5.42	5.50	4.52	
Clc1cccc(Nc2nnc(-c3c[nH]c4ccccc34)o2)c1	5.05	5.25	4.49	< 4.00	6.18
O=[N+]([O-])c1ccc(Nc2nnc(-c3c[nH]c4ccccc34)o2)cc1	5.45	5.75	6.05	4.35	5.42
